In patent publication US7892767B2, “Phosphospecific chemokine receptor antibodies” (Washington University in St. Louis, priority 2005, dated 2011):

Legend:
CXCR4 = CXCR4 (Homo sapiens, UniProt P61073); experiment: Stimulated CXCR4 phosphorylation in LN428 GBM cells (western blot); type: cell-based; parameters: lysates from the glioblastoma cell line LN428, which is known to express high levels of CXCR4; endogenous in cells; host or cells: LN428 GBM cell line
Description: Cell Culture, transfections and stimulation of CXCR4 phosphorylation. The U87 glioblastoma multiforme (GBM, grade IV) cell line was obtained from the American Type Culture Collection. The LN428 GBM cell line was a kind gift of Dr Erwin van Meir (Winship Cancer Center, Emory University, Atlanta, Ga.). U87 cells were grown in minimum essential a media supplemented with 10% fetal bovine serum ((FBS), Biomedia, Foster City, Calif.). LN428 cells were grown in DMEM (Fisher, Pittsburgh, Pa.) supplemented with 10% horse serum (Sigma). All cells were grown in the presence of penicillin-streptomycin. The coding sequence for human CXCR4 was obtained by high fidelity RT-PCR (Superscript III Platinum, Invitrogen), and cloned into the expression vector pMSCVneo (Clontech, Palo Alto, Calif.). Transfections were performed with 0.3 μg of plasmid DNA in 20 μl Lipofectamine (Invitrogen)/35 mm^2 tissue culture dish for 9 hours according to the manufacturer's instructions. Cells recovered in Optimem supplemented with 10% FBS. Transfected and non-transfected cells were placed in serum free media for 24 hours prior to treatment with agents to stimulate CXCR4 phosphorylation. Treatment was usually for 0 or 10 minutes with 1 μg/ml CXCL12 (Peprotech, Rocky Hill N.J.), 4 μM 4-Phorbol 12-myristate 13-acetate (PMA) or 10 nM EGF. In some experiments, CXCL12 was washed away and cells were incubated for an additional 20 minutes in serum free media alone.
Western Blot Analysis. Whole-cell extracts were obtained by lysing cells with lysis buffer (20 mM Tris pH 7.4, 137 mM NaCl, 10% Glycerol and 1% Triton X-100) supplemented with phosphatase inhibitor cocktail set II (Calbiochem, La Jolla, Calif.) and protease inhibitors PMSF (1 mM), leupeptin (0.005 mg/ml) and aprotonin (0.005 mg/ml). The proteins (50-75 μg) were resolved with 10% Bis-Tris gels (Invitrogen) and transferred onto the nitrocellulose membrane Hybond ECL (Amersham, Piscataway, N.J.) according to standard protocols. Polyclonal anti-CXCR4 antibody was used at a 1:500 dilution and P338-CXCR4 and P339-CXCR4 directed antibodies were used at 1:100 dilutions overnight at 4° C. This was followed by incubation with horseradish peroxidase-conjugated secondary antibody (1:15,000; Bio-Rad). Peroxide activity was detected using the enhanced chemiluminescence Supersignal West Dura system (Pierce, Rockford, Ill.). Mouse anti-actin antibody at a concentration of 1:1500 was used as a loading control. Peptide competitions and lambda phosphatase treatment were performed as described above.
The utility of these antibodies for evaluating the relationship between ligand binding and CXCR4 function is dependent upon their ability to distinguish a ligand activated form of the receptor. Serum starvation increased CXCL12 responsiveness (data not shown), and for all of these experiments LN428 GBM cells were serum starved for 24 hours prior to CXCL12 treatment. Serum starved LN428 cells were treated with 1 μg/ml CXCL12 for 0 or 10 minutes and the abundance of phospho-CXCR4 was determined by western blot and immuno-localization in fixed cells. […] A similar CXCL12-induced increase in P339-CXCR4 (FIG. 3B), but not P338-CXCR4 (data not shown) immunoreactivity was seen by immunofluorescent analysis of paraformaldehyde fixed cells. After 10 minutes of exposure to CXCL12, P339-CXCR4 can be seen localized to the surface of LN428 cells (FIG. 3B). CXCL12 was then washed away and cells were incubated in its absence for an additional 20 minutes. Surface labeling declined as a function of time and P339-CXCR4 was seen accumulating intracellularly.
Whether this is the only kinase that can phosphorylate these residues is unclear. The observation that protein kinase C (PKC) stimulated CXCR4 internalization also depends upon phosphorylation of this region of the molecule raises the question of whether these sites might also be PKC phosphorylation sites (17, 19, 27, 28). […]

Nf1−/− astrocytes = experiment: Intracellular cAMP by ELISA, Nf1−/− astrocytes; type: cell-based, mouse
Description: (§1) cAMP measurements. cAMP was measured by ELISA (Cayman Chemical Company, Ann Arbor, Mich. or Assay Designs, Ann Arbor, Mich.). Briefly, astrocyte cultures were lysed in 0.1 N HCl. After the removal of cellular debris, soluble cellular extract was dried down and resuspended in EIA buffer. Experimental samples and cAMP standard curve were acetylated to increase the sensitivity of the assay and incubated with cAMP ACHe tracer and cAMP EIA anti-serum overnight at 4° C. according to the manufacturer's instructions. After extensive washing, bound antibody was measured by spectrophotometric analysis. Concentrations of cAMP were derived from comparison with standard curve according to manufacturer's instructions.
(§2) We evaluated the time dependent changes in intracellular cAMP in Nf1+/+ and Nf1−/− astrocytes after exposure to 0.1 μg/ml CXCL12. […] However, in Nf1+/+ astrocytes, intracellular levels of cAMP rapidly recovered to baseline and oscillated between baseline and 40% of baseline over the 45-minute experimental period (FIG. 10B).
(§3) We hypothesized that if cooperative signaling between Nf1 loss and CXCR4 activation promotes tumor formation through the suppression of cAMP, then agents that alter intracellular cAMP should modulate CXCL12 responses. We treated astrocytes with the adenylyl cyclase (AC) activator forskolin in the presence and absence of CXCL12. […] In these experiments, forskolin elevated intracellular cAMP levels in both Nf1+/+ and Nf1−/− astrocytes with peak values of 17.8+/−0.4 and 19.4+/−4.5 pmol/mg of protein, respectively, after 24 hours of treatment. The effect of forskolin was not abrogated by co-treatment with CXCL12. Under these conditions, cAMP levels were 17.9+/−2.5 and 10.4+/−5.8 pmol/mg of total protein in Nf1+/+ and Nf1−/− astrocytes, respectively. […] The effect of forskolin on CXCL12-mediated Nf1−/− apoptosis was evidenced by changes in the percentage of Nf1−/− astrocytes in the sub-G0 fraction of the cell cycle (FIG. 11B). Thus while astrocyte growth is dependent upon MEK and PI3 kinase activity, CXCL12-induced Nf1−/− astrocyte growth requires the suppression of intracellular cAMP levels.

Nf1+/+ astrocytes = experiment: Intracellular cAMP by ELISA, Nf1+/+ astrocytes; type: cell-based, mouse; details: 0.1 μg/ml CXCL12, 45-minute period
Description: as §1, §2, §3

[1] = 1 μg/ml CXCL12, 4 μM PMA or 10 nM EGF

Sequence of CXCR4 (P61073 whole entry): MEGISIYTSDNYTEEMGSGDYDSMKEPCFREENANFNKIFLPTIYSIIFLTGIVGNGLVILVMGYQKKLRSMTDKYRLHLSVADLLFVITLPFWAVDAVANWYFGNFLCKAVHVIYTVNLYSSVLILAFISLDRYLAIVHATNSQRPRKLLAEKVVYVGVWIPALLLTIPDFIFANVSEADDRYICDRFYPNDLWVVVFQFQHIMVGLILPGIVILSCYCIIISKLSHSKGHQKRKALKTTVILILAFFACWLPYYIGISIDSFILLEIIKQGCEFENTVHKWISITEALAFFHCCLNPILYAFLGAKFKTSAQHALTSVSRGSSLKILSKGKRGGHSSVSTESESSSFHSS

- P338 phosphorylation stimulated (CXCR4; [1]): not
- P339 phosphorylation (CXCR4; [1]): stimulated
- P338-CXCR4 levels after treatment (CXCR4; 1 μg/ml CXCL12, 10 minutes, serum starved LN428 cells): unaffected
Substance: CXCL12: chemokine ligand of CXCR4 (Peprotech)
- integrated area under the cAMP curve (Nf1−/− astrocytes; 0.1 μg/ml CXCL12, 45-minute period): 1.96
- intracellular cAMP in Nf1−/− astrocytes relative to Nf1+/+ astrocytes (Nf1−/− astrocytes; 0.1 μg/ml CXCL12, from areas under the curves): approximately 73%
- integrated area under the cAMP curve (Nf1+/+ astrocytes): 2.70
- intracellular cAMP, lower level of oscillation (Nf1+/+ astrocytes): 40 % of baseline
